Data as given in US5653961A, “Butixocort aerosol formulations in hydrofluorocarbon propellant” (Minnesota Mining and Manufacturing Company, priority 1995, dated 1997).
Converted amounts (≈) assume the structure as drawn.

Assay: Solubility of butixocort propionate in propellants and propellant/ethanol blends
Format: physicochemical
Procedure: Solubility of butixocort propionate in P134a, P227, and blends thereof with ethanol, was determined as follows: Drug and the selected propellant system were combined and agitated for a period of seven days at a selected temperature to afford a saturated solution. The solid was filtered off and the supernatant was weighed. The propellant was removed by evaporation and the drug was reconstituted quantitatively. The concentration of the drug in the reconstituted solution was determined and from this the mount and concentration of drug dissolved in the propellant system was calculated. TABLES 1 and 2 show the average of three independent determinations.

Structure (SMILES): CCCC(=O)O[C@]1(C(=O)CSC(=O)CC)CC[C@H]2[C@@H]3CCC4=CC(=O)CC[C@]4(C)[C@H]3[C@@H](O)C[C@@]21C [Butixocort propionate, 11-beta-hydroxypregn-4-ene-3,20-dione-21-thiopropionate-17-butyrate]
- solubility in HFA 134a (HFA 134a, 20° C.): about 0.02 % by weight
- solubility in HFA 227 (HFA 227, 20° C.): about 0.03 % by weight
- solubility at 168 h (propellant 134a, 0% ethanol, organic solvent or mixture, 0 weight % ethanol, 20°C, Table 2, average of three determinations): 300 µg/mL (≈ 594 µM)
- solubility at 168 h (propellant 134a, 1% ethanol, organic solvent or mixture, 1 weight % ethanol, 20°C, Table 2): 751 µg/mL (≈ 1490 µM)
- solubility at 168 h (propellant 134a, 2.5% ethanol, organic solvent or mixture, 2.5 weight % ethanol, 20°C, Table 2): 1760 µg/mL (≈ 3480 µM)
- solubility at 168 h (propellant 134a, 5% ethanol, organic solvent or mixture, 5 weight % ethanol, 20°C, Table 2): 4180 µg/mL (≈ 8280 µM)
- solubility at 168 h (propellant 134a, 7.5% ethanol, organic solvent or mixture, 7.5 weight % ethanol, 20°C, Table 2): 6960 µg/mL (≈ 13800 µM)
- solubility at 168 h (propellant 134a, 10% ethanol, organic solvent or mixture, 10 weight % ethanol, 20°C, Table 2): 9630 µg/mL (≈ 19100 µM)
- solubility at 168 h (propellant 134a, organic solvent or mixture, 4 °C, Table 1, average of three determinations): 103 µg/mL (≈ 204 µM)
- solubility at 168 h (propellant 134a, organic solvent or mixture, 20 °C, Table 1, average of three determinations): 203 µg/mL (≈ 402 µM)
- solubility at 168 h (propellant 134a, organic solvent or mixture, 30 °C, Table 1, average of three determinations): 300 µg/mL (≈ 594 µM)
- solubility at 168 h (propellant 134a, organic solvent or mixture, 40 °C, Table 1, average of three determinations): 319 µg/mL (≈ 632 µM)
- solubility at 168 h (propellant 227, 0% ethanol, organic solvent or mixture, Propellant 227, 0 weight % ethanol, 20°C, Table 2, average of three determinations): 395 µg/mL (≈ 783 µM)
- solubility at 168 h (propellant 227, 1% ethanol, organic solvent or mixture, Propellant 227, 1 weight % ethanol, 20°C, Table 2): 971 µg/mL (≈ 1920 µM)
- solubility at 168 h (propellant 227, 2.5% ethanol, organic solvent or mixture, Propellant 227, 2.5 weight % ethanol, 20°C, Table 2): 1110 µg/mL (≈ 2210 µM)
- solubility at 168 h (propellant 227, 5% ethanol, organic solvent or mixture, Propellant 227, 5 weight % ethanol, 20°C, Table 2): 3850 µg/mL (≈ 7630 µM)
- solubility at 168 h (propellant 227, 7.5% ethanol, organic solvent or mixture, Propellant 227, 7.5 weight % ethanol, 20°C, Table 2): 6200 µg/mL (≈ 12300 µM)
- solubility at 168 h (propellant 227, 10% ethanol, organic solvent or mixture, Propellant 227, 10 weight % ethanol, 20°C, Table 2): 8520 µg/mL (≈ 16900 µM)
- solubility at 168 h (propellant 227, organic solvent or mixture, Propellant 227, 4 °C, Table 1, average of three determinations): 261 µg/mL (≈ 517 µM)
- solubility at 168 h (propellant 227, organic solvent or mixture, Propellant 227, 20 °C, Table 1, average of three determinations): 285 µg/mL (≈ 565 µM)
- solubility at 168 h (propellant 227, organic solvent or mixture, Propellant 227, 30 °C, Table 1, average of three determinations): 306 µg/mL (≈ 606 µM)
- solubility at 168 h (propellant 227, organic solvent or mixture, Propellant 227, 40 °C, Table 1, average of three determinations): 317 µg/mL (≈ 628 µM)
